Experiment [1] deals with T1, vesicular acetylcholine transporter (VAChT) (Homo sapiens, UniProt Q16572).
T1 construct: gene SLC18A3
T1 sequence (Q16572 1-532): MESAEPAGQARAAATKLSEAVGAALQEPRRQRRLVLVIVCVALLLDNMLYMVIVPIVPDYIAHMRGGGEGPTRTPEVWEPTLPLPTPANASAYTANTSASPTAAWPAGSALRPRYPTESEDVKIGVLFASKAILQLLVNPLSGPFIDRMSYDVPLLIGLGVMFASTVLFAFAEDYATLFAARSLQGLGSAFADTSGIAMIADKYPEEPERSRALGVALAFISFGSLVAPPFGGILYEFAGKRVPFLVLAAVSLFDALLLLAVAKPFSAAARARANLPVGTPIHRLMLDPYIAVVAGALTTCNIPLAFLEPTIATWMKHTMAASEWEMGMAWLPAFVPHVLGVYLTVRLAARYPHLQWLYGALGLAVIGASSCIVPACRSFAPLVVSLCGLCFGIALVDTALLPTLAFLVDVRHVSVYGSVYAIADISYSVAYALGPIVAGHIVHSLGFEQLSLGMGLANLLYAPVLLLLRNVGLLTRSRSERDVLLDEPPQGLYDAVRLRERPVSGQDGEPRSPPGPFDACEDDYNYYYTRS

Experiment [2] concerns the target T2, sigma-1 receptor (S1R) (Mus musculus, UniProt O55242).
T2 construct: gene Sigmar1; native receptor in WT mouse brain
Kind of experiment: in vivo PET blocking of […]FTC-146 ([…] mg/kg), with S1R-KO control. Format: cell-based.

Molecules are shown by their SMILES.

T2 sequence (O55242 whole entry): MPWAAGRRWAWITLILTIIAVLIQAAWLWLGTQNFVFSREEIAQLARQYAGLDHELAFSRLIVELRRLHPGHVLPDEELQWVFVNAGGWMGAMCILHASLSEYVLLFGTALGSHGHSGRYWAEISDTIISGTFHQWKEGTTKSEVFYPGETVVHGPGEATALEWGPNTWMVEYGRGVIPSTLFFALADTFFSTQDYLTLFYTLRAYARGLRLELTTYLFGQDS

A word on the Ki: it is a measure of affinity in units of concentration, obtained from inhibition or displacement. A higher Ki goes with a looser hold on the target. Take `O=c1sc2cc(CCCF)ccc2n1CCN1CCCCCC1` [FTC-146]: affinity in experiment [1] was put at a Ki of 450 ± 80 nM.
On to `CN(C)CCN(C)CCc1ccc(Cl)c(Cl)c1` [BD1047], for which the “in vivo PET blocking of [18F]FTC-146 (1 mg/kg), with S1R-KO control” value in experiment [2] is reported as “following receptor blocking with a known S1R antagonist (BD-1047), showed similarly rapid washout of tracer”.

For the origin of these results see article PMC4573970, “Further validation to support clinical translation of [^18F]FTC-146 for imaging sigma-1 receptors” (EJNMMI Research, 2015).
